From patent US20240148707A1, “MODULATION OF DRUG-DRUG INTERACTIONS OF VADADUSTAT” (Akebia Therapeutics, Inc., priority 2021, published 2024) come the findings set out here.

Common to all, as to type: in vivo, human
The nature of series [1]: [14C]-labeled Compound 1 metabolism and excretion study in healthy adult males. The conditions noted are these: healthy adult male (6), single oral 650 mg [14C]-labeled Compound 1. An excerpt: The urinary excretion rate of this drug and acyl glucuronide is less than 1% of the total radioactivity.
A short description of series [2]: Phase I drug-drug interaction study with cyclosporine (Part 1, Arm 1). The protocol: (§1) A phase I, open-label, 2-part study was conducted in healthy male and female subjects to evaluate the potential for interaction of cyclosporine (Part 1, Arm 1), probenecid (Part 1, Arm 2), and rifampin (Part 2) with vadadustat.
Subjects were randomized in a 1:1 ratio to 1 of 2 dosing sequences (A:B or B:A) to receive vadadustat 300 mg alone and vadadustat 300 mg in combination with oral cyclosporine 500 mg in a crossover design. Study drugs were administered in the morning after at least a 10-hour overnight fast. Subjects remained fasted for at least 4 hours post-dose. • Treatment A: a single oral dose of vadadustat (300 mg) administered as 2×150 mg tablets. • Treatment B: a single oral dose of vadadustat (300 mg) administered as 2×150 mg tablets co-administered with a single oral dose of cyclosporine (500 mg) administered as 5×100 mg capsules.
On the morning of Day 1, subjects received the first treatment (A or B). Following a 7-day washout, subjects crossed over to Period 2 to receive the second treatment of the dosing sequence (A or B) on Day 8.
On each dosing day (Day 1 and Day 8) blood samples for PK analysis were collected up to 48 hours post-dose. Subjects were discharged from the clinical research unit (CRU) on the morning of Day 10, after the final 48-hour post-dose PK sample had been collected. A follow-up phone call was conducted 30 days±2 days after the final dose.

Series [3] can be described thus: Phase I drug-drug interaction study with probenecid (Part 1, Arm 2). The conditions noted are these: for increase in exposure (AUC): administered with multiple doses of probenecid vs vadadustat alone. The procedure: as §1
On the morning of Day 1, subjects received a single oral dose of vadadustat (300 mg) as 2×150 mg tablets after at least a 10-hour overnight fast and remained fasted for at least 4 hours post-dose. Following a 2-day washout (Days 1 to 2), subjects received 1 oral probenecid 500 mg tablet Q12 h for 4 days (Days 3 to 6). On days that probenecid was administered alone (Days 3, 4, and 6), probenecid was administered in a fasted state 1 hour prior to a standard breakfast and 1 hour prior to an evening meal or snack. On Day 5, probenecid was co-administered with a single dose of vadadustat (300 mg as 2×150 mg tablets) following at least a 10-hour fast. Subjects remained fasted for at least 4 hours after dosing.
On days vadadustat was administered (Day 1 and Day 5), blood samples for PK analysis were collected up to 48 hours postdose. In addition, on vadadustat dosing days, pooled urine samples were collected up to 24 hours post-dose. Subjects were discharged from the CRU on the morning of Day 7, after the final 48-hour post-dose PK sample had been collected. A follow-up phone call was conducted 30 days±2 days after the final dose.

The nature of series [4]: Phase 1 drug-drug interaction study, vadadustat as perpetrator with adefovir (Arm 2). The conditions noted are these: for AUC(0-inf) / AUC(0-t) / Cmax: both sexes, human, plasma. The protocol:
A Phase 1, open-label, fixed sequence study was conducted in healthy male and female subjects to evaluate vadadustat as a perpetrator of DDIs with digoxin and/or adefovir.
On the morning of Day 1, subjects received a single oral dose of adefovir 10 mg after at least a 10-hour overnight fast. Subjects remained fasted for at least 4 hours after dosing. Following a 3-day washout period, subjects received vadadustat 600 mg QD beginning on Day 4 for 5 days (Days 4-8). When administered alone, vadadustat was administered in the morning at least 30 minutes prior to breakfast. On Day 7 subjects received their morning dose of vadadustat 600 mg along with a single oral dose of adefovir 10 mg after at least a 10-hour overnight fast.

Series [5] can be described thus: Phase 1 drug-drug interaction study, vadadustat as perpetrator with digoxin (Arm 1).
Protocol: A Phase 1, open-label, fixed sequence study was conducted in healthy male and female subjects to evaluate vadadustat as a perpetrator of DDIs with digoxin and/or adefovir. […] Subjects remained fasted for at least 4 hours after dosing. Following a 12-day washout period, subjects received vadadustat 600 mg QD beginning on Day 13 for 7 days (Days 13-19).
[6] abbreviates: vadadustat 300 mg + cyclosporine 500 mg, single oral doses, fasted.
The mark [7] stands for this setting: vadadustat 300 mg alone, single oral dose, fasted.
[8] abbreviates: vadadustat 300 mg with vs without cyclosporine 500 mg.
The mark [9] stands for this setting: vadadustat 300 mg single dose + probenecid 500 mg Q12h (multiple doses), fasted.
Where [10] appears, read: vadadustat 300 mg with vs without probenecid 500 mg Q12h.
Setting [11] is: adefovir 10 mg with vs without vadadustat 600 mg QD.
The mark [12] stands for this setting: digoxin 0.5 mg single dose with vadadustat 600 mg QD (Day 16).
The mark [13] stands for this setting: digoxin 0.5 mg with vs without vadadustat 600 mg QD.

Read-outs that look alike come from different tables or passages of the source.

As to `O=C(O)CNC(=O)c1ncc(-c2cccc(Cl)c2)cc1O[C@@H]1O[C@H](C(=O)O)[C@@H](O)[C@H](O)[C@H]1O` [Vadadustat-O-Glucuronide], the “share of the total radioactivity (AUC0-∞) in plasma” value in series [1] is given as “about 15%”. In series [2] (setting [6]), the “AUCinf, geometric LSM, Treatment V + C” value worked out at 39210 ng·h/mL; the “AUClast, geometric LSM, Treatment V + C” value stood at 38130 ng·h/mL; the “Cmax, geometric LSM, Treatment V + C” value was determined as 3900 ng/mL. Moreover, in series [2] (setting [7]), the “AUCinf, geometric LSM, Treatment V” value is 34480 ng·h/mL; the “AUClast, geometric LSM, Treatment V” value worked out at 33430 ng·h/mL; the “Cmax, geometric LSM, Treatment V” value amounted to 4500 ng/mL. In addition, in series [2] (setting [8]), the “AUCinf, Ratio (V + C)/V” value is recorded as 113.74%; the “AUClast, Ratio (V + C)/V” value stood at 114.04%; the “Cmax, Ratio (V + C)/V” value was 86.63%. For the same compound, the “changes in the Cmax and AUC values” in series [2] (vadadustat in combination with cyclosporine) was “no clinically relevant changes”. For the same compound, the “increase in exposure (AUC)” value in series [3] (listed as vadadustat-O-glucuronide) is “about 2 fold”. Further, the “increase in exposure (AUC)” value in series [3] (listed as vadadustat-Oglucuronide) is reported as about 2 fold. In series [3] (in combination with probenecid), the “change of Cmax values” is “relatively unchanged” and the urinary excretion result is reported as “decreased”. Moreover, in series [3] (setting [7]), the “AUCinf, geometric LSM, Treatment V” value was 38240 ng·h/mL; the “AUClast, geometric LSM, Treatment V” value came out at 37410 ng·h/mL; the “Cmax, geometric LSM, Treatment V” value was determined as 5590 ng/mL. In series [3] (setting [9]), the “AUCinf, geometric LSM, Treatment V + P” value turned out to be 86580 ng·h/mL; the “AUClast, geometric LSM, Treatment V + P” value stood at 83810 ng·h/mL; the “Cmax, geometric LSM, Treatment V + P” value came out at 6170 ng/mL. Besides, in series [3] (setting [10]), the “AUCinf, Ratio (V + P)/V” value stood at 226.39%; the “AUClast, Ratio (V + P)/V” value was found to be 224.05%; the “Cmax, Ratio (V + P)/V” value is reported as 110.38%.

Consider `Nc1ncnc2c1ncn2CCOCP(=O)(O)O` [adefovir], for which the “AUCinf, Ratio (V + A)/A” value in series [4] (setting [11]) is given as 114.70%. Also, the “AUClast, Ratio (V + A)/A” value in series [4] (setting [11]) was found to be 114.74%. For the same compound, in series [4] (setting [11]), the “Cmax, Ratio (V + A)/A” value came to 95.15%. Moreover, the “systemic exposure to adefovir” value in series [4] (adefovir administered with vadadustat vs adefovir alone) is “relatively unchanged”. Besides, the AUC(0-inf) in series [4] (oral, adefovir 10 mg single dose with vadadustat 600 mg QD (Day 7), read-out: AUCinf, geometric LSM, Treatment V + A) amounted to 230 ng·h/mL; in series [4] (adefovir 10 mg alone, single oral dose, fasted, read-out: AUCinf, geometric LSM, Treatment A), 201 ng·h/mL. Also, the AUC(0-t) in series [4] (oral, adefovir 10 mg single dose with vadadustat 600 mg QD (Day 7), read-out: AUClast, geometric LSM, Treatment V + A) is 227 ng·h/mL; in series [4] (adefovir 10 mg alone, single oral dose, fasted, read-out: AUClast, geometric LSM, Treatment A), 198 ng·h/mL. Also, the Cmax in series [4] (oral, adefovir 10 mg single dose with vadadustat 600 mg QD (Day 7), read-out: Cmax, geometric LSM, Treatment V + A) is 17.1 ng/mL; in series [4] (adefovir 10 mg alone, single oral dose, fasted, read-out: Cmax, geometric LSM, Treatment A) it was 17.9 ng/mL.

As to `C[C@H]1O[C@@H](O[C@H]2[C@@H](O)C[C@H](O[C@H]3[C@@H](O)C[C@H](O[C@H]4CC[C@@]5(C)[C@H](CC[C@@H]6[C@@H]5C[C@@H](O)[C@]5(C)[C@@H](C7=CC(=O)OC7)CC[C@]65O)C4)O[C@@H]3C)O[C@@H]2C)C[C@H](O)[C@@H]1O` [digoxin], the AUC(0-t) in series [5] (both sexes, human, plasma, oral, digoxin 0.5 mg single dose with vadadustat 600 mg QD (Day 16), read-out: AUClast, geometric LSM, Treatment V + D) amounted to 31.7 ng·h/mL. For the same compound, the AUC(0-inf) in series [5] (both sexes, human, plasma, digoxin 0.5 mg alone, single oral dose, fasted, read-out: AUCinf, geometric LSM, Treatment D) is 36.3 ng·h/mL. Also, the AUC(0-t) in series [5] (both sexes, human, plasma, digoxin 0.5 mg alone, single oral dose, fasted, read-out: AUClast, geometric LSM, Treatment D) was 34.6 ng·h/mL. For the same compound, the “Cmax, geometric LSM, Treatment D” value in series [5] (digoxin 0.5 mg alone, single oral dose, fasted) is listed as 2.46 ng/mL. In series [5] (setting [12]), the “AUCinf, geometric LSM, Treatment V + D” value was 33.19 ng·h/mL and the “Cmax, geometric LSM, Treatment V + D” value turned out to be 1.64 ng/mL. In addition, in series [5] (setting [13]), the “AUCinf, Ratio (V + D)/D” value is 91.37%; the “AUClast, Ratio (V + D)/D” value is 91.49%; the “Cmax, Ratio (V + D)/D” value is given as 66.92%. Moreover, in series [5] (digoxin and vadadustat coadministered vs digoxin alone), the “decrease of digoxin Cmax” value is on record as about 35%. The “total exposure (AUClast and AUCinf) to digoxin” value in series [5] (digoxin following multiple doses of vadadustat vs digoxin alone) is “unchanged”.

For orientation: Cmax means the maximum level reached in the sampled fluid or tissue.
